Assay results: patent US8124793B2, “Derivatives of ethylene methanedisulfonate as cancer chemotherapeutic agents” (priority 2007, dated 2012)

Columns and labels:
Type in all cases: cell-based
[1] = system: SF-539; experiment: NCI screen, growth of human tumor cells: CNS Cancer SF-539; conditions: SF-539 (CNS Cancer), 10^−4 molar
Summary of the method: (§1)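 At least 60 data points describe each compound tested by NCI. Cancer type, molar concentration in the screen and percent growth make up the recorded data.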

[2] = system: NCI-H460; experiment: NCI screen, growth of human tumor cells: Non-Small Cell Lung NCI-H460; conditions: NCI-H460 (Non-Small Cell Lung), 10^−4 molar
Summary of the method: as §1

[3] = system: T-47D; experiment: NCI screen, growth of human tumor cells: Breast Cancer T-47D; conditions: T-47D (Breast Cancer), 10^−4 molar
Method: (§2) In the NCI screening process, each compound was tested and described by a minimum of 60 data points. The test data include, but are not limited to the type of cancer, the molar concentration used in the screen, and the percent growth of the cancer. In some cases, NMR and elemental analysis were used for structural assignment.

[4] = system: UO-31; experiment: NCI screen, growth of human tumor cells: Renal Cancer UO-31; conditions: UO-31 (Renal Cancer), 10^−4 molar
Summary of the method: as §1

[5] = system: BT-549; experiment: NCI screen, growth of human tumor cells: Breast Cancer BT-549; conditions: BT-549 (Breast Cancer), 10^−4 molar
Summary of the method: as §1

[6] = system: SNB-75; experiment: NCI screen, growth of human tumor cells: CNS Cancer SNB-75; conditions: SNB-75 (CNS Cancer), 10^−4 molar
Summary of the method: as §1

[7] = system: SW620; experiment: NCI screen, growth of human tumor cells: Colon Cancer SW620
Method: as §2

[8] = system: U-251; experiment: NCI screen, growth of human tumor cells: CNS Cancer U-251; conditions: U-251 (CNS Cancer), 10^−4 molar
Summary of the method: as §1

[9] = system: SF-268; experiment: NCI screen, growth of human tumor cells: CNS Cancer SF-268; conditions: SF-268 (CNS Cancer), 10^−4 molar
Summary of the method: as §1

[10] = system: 786-0; experiment: NCI screen, growth of human tumor cells: Renal Cancer 786-0; conditions: 786-0 (Renal Cancer), 10^−4 molar
Summary of the method: as §1

[11] = system: LOXIMVI; experiment: NCI screen, growth of human tumor cells: Melanoma LOXIMVI; conditions: for % Growth: LOXIMVI
Method: as §2

[12] = system: MCF7/ADR-RES; experiment: NCI screen, growth of human tumor cells: Breast Cancer MCF7/ADR-RES; conditions: MCF7/ADR-RES (Breast Cancer), 10^−4 molar
Summary of the method: as §1

[13] = system: SF-295; experiment: NCI screen, growth of human tumor cells: CNS Cancer SF-295
Summary of the method: as §1

[14] = system: HOP-92; experiment: NCI screen, growth of human tumor cells: Non-Small Cell Lung HOP-92; conditions: HOP-92 (Non-Small Cell Lung), 10^−4 molar
Summary of the method: as §1

[15] = system: ACHN; experiment: NCI screen, growth of human tumor cells: Renal Cancer ACHN; conditions: ACHN (Renal Cancer), 10^−4 molar
Summary of the method: as §1

[16] = system: UACC-62; experiment: NCI screen, growth of human tumor cells: Melanoma UACC-62
Summary of the method: as §1

[17] = system: HL-60 (TB); experiment: NCI screen, growth of human tumor cells: Leukemia HL-60 (TB); conditions: HL-60 (TB) (Leukemia), 10^−4 molar
Method: as §2

[18] = system: human cancer cells; experiment: NCI screen summary over the cancers tested (negative growth of human cancer cells); conditions: 10^−4 M conc.; cancers with negative growth / cancers tested
Method: as §2
The derivatives in the tables are grouped using the same category as in the tables 1-6.

[19] = system: SR; experiment: NCI screen, growth of human tumor cells: Leukemia SR; conditions: SR (Leukemia), 10^−4 molar
Summary of the method: as §1

[20] = system: CAKI-1; experiment: NCI screen, growth of human tumor cells: Renal Cancer CAKI-1; conditions: CAKI-1 (Renal Cancer), 10^−4 molar
Summary of the method: as §1

[21] = system: MCF 7; experiment: NCI screen, growth of human tumor cells: Breast Cancer MCF 7; conditions: MCF 7 (Breast Cancer), 10^−4 molar
Summary of the method: as §1

C[Si](C)(OCCS(=O)(=O)O)C1S(=O)(=O)OCCOS1(=O)=O [NSC 674991]
percent of growth of human tumor cells [1]: 4% | percent of growth of human tumor cells [2]: 22% | percent of growth of human tumor cells [3]: 18% | percent of growth of human tumor cells [4]: 29% | percent of growth of human tumor cells [5]: 11% | percent of growth of human tumor cells [6]: −24% | % Growth ([7]; SW620, 10^−4 molar): −49% | % Growth ([7]; SW620, 10^−5 molar): 34% | % Growth ([7]; SW620, 10^−6 molar): 25% | percent of growth of human tumor cells [8]: 9% | percent of growth of human tumor cells [9]: 11% | percent of growth of human tumor cells [10]: 16% | percent of growth of human tumor cells ([11]; LOXIMVI (Melanoma), 10^−4 molar): 10% | % Growth ([11]; 10^−4 molar): −90% | % Growth ([11]; 10^−5 molar): 63% | percent of growth of human tumor cells [12]: 20% | % Growth ([13]; SF-295, 10^−4 molar): −31% | % Growth ([13]; SF-295, 10^−5 molar): 31% | percent of growth of human tumor cells [14]: 22% | percent of growth of human tumor cells [15]: −10% | % Growth ([16]; UACC-62, 10^−4 molar): 5% | % Growth ([16]; UACC-62, 10^−5 molar): 57% | percent of growth of human tumor cells [17]: 15% | Percentage of cancers showing negative growth cancers tested [18]: 10^−4 M conc. = 6/21 = 28.6% | percent of growth of human tumor cells [19]: 20% | percent of growth of human tumor cells [20]: −8% | percent of growth of human tumor cells [21]: 22%
